Test results: US20250163006A1, “New Coolants, and Preparations Containing Same” (Symrise AG, priority 2022, published 2025)

Each molecule was assayed against T1, human TRPM8 receptor (Homo sapiens, UniProt Q7Z2W7) (assay: Assay on TRPM8 modulators: Ca2+-sensitive dye (Fluo-4) fluorescence in HEK293-TRPM8 test cells). Conditions: HEK293 cells recombinantly expressing human TRPM8.
T1 construct: expressed in transfected cells; host or cells: HEK293, stably transfected, tetracycline-inducible expression
Format: cell-based
Parameters: relative TRPM8 activation: concentration or dose not given beside the values
Excerpt: The starting point for cloning the human TRPM8 receptor is an LnCaP cDNA bank. This is commercially available (e.g. BioChain, Hayward, USA) or can be produced from the andro gene-sensitive human prostate adenocarcinoma cell line LnCaP (e.g. ATCC, CRL1740 or ECACC, 891 1021 1) using standard kits.
The coding TRPM8 sequence (see e.g. http://www. ncbi.nlm.nih.gov/entrez/viewer.fcgi?db=nuccore&id=109689694) can be PCR-amplified and cloned using standard methods. The human TRPM8 gene isolated in this way was used to produce the plasmid plnd_M8. Alternatively, the TRPM8 gene can also be produced synthetically.
A stably transfected HEK293 cell line was produced as a test cell system using human TRPM8 DNA. Preference was given to HEK293, which offers the possibility of inducing TRPM8 expression using tetracycline via the plasmid introduced.
A test similar to the test already described in the literature by Behrendt H. J. et al, Br. J. Pharmacol. 141, 2004, 737-745, is performed. The agonization or antagonization of the receptor can be quantified using a Ca^2+-sensitive dye (e.g. FURA, Fluo-4 etc.). Agonists alone cause an increase in the Ca^2+ signal; antagonists cause a reduction in the Ca^2+ signal in the presence of e.g. menthol (detected in each case using the Fluo-4 dye, which has different fluorescence properties due to Ca^2+ ions).
First, a fresh culture of transformed HEK cells is prepared in cell culture flasks in the usual way. The HEK293-TRPM8 test cells are detached from the cell culture flasks using trypsin and 40,000 cells/well are seeded with 100 μl medium in 96-well plates (Greiner #655948 poly-D-lysine-coated). To induce the TRPM8 receptor, tetracycline is added to the growth medium (DMEM/HG, 10% FCS tetracycline-free, 4 mM L-glutamine, 15 μg/ml blasticidin, 100 μg/ml hygromycin B, 1 μg/ml tetracycline).
On the following day, the cells are loaded with Fluo-4AM dye and the test is performed. Proceed as follows: Addition of 100 μl/well staining solution Ca-4 kit (RB 141, Molecular Devices) to each 100 μl medium (DMEM/HG, 10% FCS tetracycline-free, 4 mM L-glutamine, 15 μg/ml blasticidin, 100 μg/ml hygromycin B, 1 μg/ml tetracycline).
Incubation in incubator, 30 minutes/37° C./5% CO2, 30 minutes/RT.
Preparation of the test substances (different concentrations in 200 μl HBSS buffer), as well as positive controls (different concentrations of menthol, icilin or lonomycin in 200 μl HBSS buffer) and negative controls (only 200 μl HBSS buffer) Addition of the test substances in quantities of 50 μl/well and measurement of the fluorescence change (e.g. in the assay device FLIPR, Molecular Devices or NovoStar, BMG) at 485 nm excitation, 520 nm emission, and evaluation of the potency of the different substances/concentrations and determination of the ECG. e.g. in the FLIPR assay device, Molecular Devices or NovoStar, BMG) at 485 nm excitation, 520 nm emission, and evaluation of the potency of the various substances/concentrations and determination of the EC50 values.
The test substances are used in triplicates in concentrations of 0.1-200 μM in the assay. Normally, the compounds are kept ready in DMSO solutions and diluted down to a maximum DMSO concentration of 2% for the assay.
The activity of the active substances in relation to activation of the TRPM8 channel is determined using the assay described. This is done in a concentration-dependent manner. For each active substance, 6 to 10 concentrations are measured as standard. A mathematical method (4-parameter or 5-parameter logistic curve fitting) can be used to determine the EC50 value as the inflection point of the sigmoidal curve from the activity values determined. These are standard biochemical methods that are familiar to experts.

T1 sequence (Q7Z2W7 whole entry): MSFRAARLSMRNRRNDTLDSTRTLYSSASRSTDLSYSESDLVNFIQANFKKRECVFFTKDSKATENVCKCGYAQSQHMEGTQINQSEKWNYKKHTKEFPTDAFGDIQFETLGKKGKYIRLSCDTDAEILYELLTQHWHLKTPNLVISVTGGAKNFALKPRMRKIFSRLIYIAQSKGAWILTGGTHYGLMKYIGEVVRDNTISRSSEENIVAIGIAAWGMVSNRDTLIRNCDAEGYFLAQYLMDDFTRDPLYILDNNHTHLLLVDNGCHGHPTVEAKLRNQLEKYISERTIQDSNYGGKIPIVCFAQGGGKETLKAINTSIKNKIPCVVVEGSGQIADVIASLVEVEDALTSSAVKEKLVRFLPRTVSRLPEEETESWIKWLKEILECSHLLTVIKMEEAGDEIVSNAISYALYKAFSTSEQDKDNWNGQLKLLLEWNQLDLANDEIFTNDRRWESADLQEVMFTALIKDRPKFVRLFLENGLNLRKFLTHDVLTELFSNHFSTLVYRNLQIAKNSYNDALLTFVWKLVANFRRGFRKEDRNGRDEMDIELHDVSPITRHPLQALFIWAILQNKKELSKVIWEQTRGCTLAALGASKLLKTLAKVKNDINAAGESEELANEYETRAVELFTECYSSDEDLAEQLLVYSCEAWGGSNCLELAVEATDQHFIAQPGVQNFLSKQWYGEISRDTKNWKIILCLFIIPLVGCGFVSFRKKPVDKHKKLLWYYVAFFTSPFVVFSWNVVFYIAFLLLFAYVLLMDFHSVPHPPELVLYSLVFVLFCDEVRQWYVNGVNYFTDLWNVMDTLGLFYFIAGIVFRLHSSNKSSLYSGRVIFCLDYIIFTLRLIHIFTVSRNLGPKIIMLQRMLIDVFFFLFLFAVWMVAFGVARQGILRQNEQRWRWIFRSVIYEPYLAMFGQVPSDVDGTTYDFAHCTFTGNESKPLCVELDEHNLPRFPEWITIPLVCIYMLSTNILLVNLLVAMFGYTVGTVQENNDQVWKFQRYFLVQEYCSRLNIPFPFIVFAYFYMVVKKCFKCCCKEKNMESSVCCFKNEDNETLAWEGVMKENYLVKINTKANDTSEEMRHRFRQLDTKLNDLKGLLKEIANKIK

Structure (SMILES)	relative TRPM8 activation [%]
CCC(=O)CSc1nc(-c2ccccc2)c(-c2ccccc2)o1 [Compound A-61, 1-(4,5-diphenyloxazol-2-yl)sulfanylbutan-2-one]	0
CNC(=O)C(C)Sc1nc(-c2ccc(C)cc2)c(-c2ccc(C)cc2)o1 (stereo not drawn) [Compound A-25, 2-[4,5-bis (p-tolyl)oxazol-2-yl]sulfanyl-N-methyl-propanamide]	55
Cc1nc(SC(C)C(=O)NC2CC2)[nH]c1C (stereo not drawn) [Compound A-56, N-cyclopropyl-2-[(4,5-dimethyl-1H-imidazol-2-yl)sulfanyl] propanamide]	1
CC(CO)NC(=O)CSc1nc(-c2ccccc2)c(-c2ccccc2)o1 (stereo not drawn) [Compound A-26, 2-(4,5-diphenyloxazol-2-yl)sulfanyl-N-(2-hydroxy-1-methyl-ethyl)acetamide]	51
COC(=O)NCCc1nc(-c2ccccc2)c(-c2ccccc2)o1 [Compound A-63, methyl N-[2-(4,5-diphenyloxazol-2-yl)ethyl]carbamate]	−1
CC(C)CNC(=O)C(C)Sc1nc(-c2ccccc2)c(-c2ccccc2)o1 (stereo not drawn) [Compound A-37, 2-(4,5-diphenyloxazol-2-yl)sulfanyl-N-isobutyl-propanamide]	7
CNC(=O)CCCc1nc(-c2ccccc2)c(-c2ccccc2)o1 [Compound A-36, 4-(4,5-diphenyloxazol-2-yl)-N-methyl-butanamide]	12
CCC(=O)C(C)Sc1nc(-c2ccccc2)c(-c2ccccc2)o1 (stereo not drawn) [Compound A-48, 2-(4,5-diphenyloxazol-2-yl) sulfanylpentan-3-one]	2
OCCSc1nc(-c2ccccc2)c(-c2ccccc2)o1 [Compound A-60, 2-(4,5-diphenyloxazol-2-yl) sulfanylethanol]	0
CCCCNC(=O)CSc1nc(-c2ccccc2)c(-c2ccccc2)o1 [Compound A-70, N-butyl-2-(4,5-diphenyloxazol-2-yl)sulfanyl-acetamide]	−2
c1ccc(-c2nc(C3CCCCN3)oc2-c2ccccc2)cc1 (stereo not drawn) [Compound A-44, 4,5-diphenyl-2-(2-piperidyl)oxazole]	3
c1ccc(CSc2nc(-c3ccccc3)c(-c3ccccc3)o2)cc1 [Compound A-54, 2-benzylsulfanyl-4,5-diphenyl-oxazole]	1
CNC(=O)/C=C/c1nc(-c2ccccc2)c(-c2ccccc2)o1 [Compound A-35, (E)-3-(4,5-diphenyloxazol-2-yl)-N-methyl-prop-2-enamide]	13
CCC(=O)CCc1nc(-c2ccccc2)c(-c2ccccc2)o1 [Compound A-40, 1-(4,5-diphenyloxazol-2-yl)pentan-3-one]	5
CNC(=O)CSc1nc(-c2ccc(C)cc2)c(-c2ccc(C)cc2)o1 [Compound A-68, 2-[4,5-bis(p-tolyl)oxazol-2-yl]sulfanyl-N-methyl-acetamide]	−2
COCCNC(=O)CSc1nc(-c2ccccc2)c(-c2ccccc2)o1 [Compound A-53, 2-(4,5-diphenyloxazol-2-yl)sulfanyl-N-(2-methoxyethyl) acetamide]	1
COc1ccc(-c2nc(SCC(=O)NC3CC3)oc2-c2ccc(OC)cc2)cc1 [Compound A-58, 2-[4,5-bis(4-methoxyphenyl)oxazol-2-yl]sulfanyl-N-cyclopropyl-acetamide]	1
O=C(CSc1nc(-c2ccccc2)c(-c2ccccc2)o1)NC1CCCC1 [Compound A-38, N-cyclopentyl-2-(4,5-diphenyloxazol-2-yl)sulfanyl-acetamide]	6
CC(C)C(=O)CSc1nc(-c2ccccc2)c(-c2ccccc2)o1 [Compound A-51, 1-(4,5-diphenyloxazol-2-yl)sulfanyl-3-methyl-butan-2-one]	1

Next, values leading:

relative TRPM8 activation [%]	Structure (SMILES)
25	CCC(=O)CSc1nnc(-c2ccccc2)c(-c2ccccc2)n1 [Compound B-33, 1-[(5,6-diphenyl-1,2,4-triazin-3-yl)sulfanyl]butan-2-one]
1	CNC(=O)C(C)Sc1cnccn1 (stereo not drawn) [Compound B-59, N-methyl-2-pyrazine-2-ylsulfanyl-propanamide]
68	O=C(CSc1cnc(-c2ccccc2)c(-c2ccccc2)n1)NC1CC1 [Compound B-24, N-cyclopropyl-2-(5,6-diphenylpyrazin-2-yl)sulfanyl-acetamide]
40	CCCCSc1nnc(-c2ccccc2)c(-c2ccccc2)n1 [Compound B-31, 3-butylsulfanyl-5,6-diphenyl-1,2,4-triazine]
0	Cc1ccc(-c2nnc(SCC(=O)NC3CC3)nc2-c2ccc(C)cc2)cc1 [Compound B-62, 2-[[5,6-bis(p-tolyl)-1,2,4-triazin-3-yl]sulfanyl]-N-cyclopropyl-acetamide]
53	CC(Sc1nnc(-c2ccccc2)c(-c2ccccc2)n1)C(=O)NCc1ccco1 (stereo not drawn) [Compound B-28, 2-[(5,6-diphenyl-1,2,4-triazin-3-yl)sulfanyl]-N-(2-furylmethyl)propanamide]
5	CNC(=O)C(C)Sc1nnc(-c2ccc(O)cc2)c(-c2ccc(O)cc2)n1 (stereo not drawn) [Compound B-45, 2-[[5,6-bis(4-hydroxyphenyl)-1,2,4-triazin-3-yl]sulfanyl]-N-methyl-propanamide]
3	CNC(=O)COc1nnc(-c2ccccc2)c(-c2ccccc2)n1 [Compound B-52, 2-[(5,6-diphenyl-1,2,4-triazin-3-yl)oxy]-N-methyl-acetamide]
3	c1ccc(-c2nnc(NC3COC3)nc2-c2ccccc2)cc1 [Compound B-51, N-(oxetan-3-yl)-5,6-diphenyl-1,2,4-triazin-3-amine]
73	CN(C)C(=O)CSc1cnc(-c2ccccc2)c(-c2ccccc2)n1 [Compound B-23, 2-(5,6-diphenylpyrazin-2-yl)sulfanyl-N,N-dimethyl-acetamide]
11	CC(Sc1nnc(-c2ccccc2)c(-c2ccccc2)n1)C(=O)N(C)C1CCCCC1 (stereo not drawn) [Compound B-39, N-cyclohexyl-2-[(5,6-diphenyl-1,2,4-triazin-3-yl)sulfanyl]-N-methyl-propanamide]
9	CNC(=O)C(C)Sc1nnc(-c2ccc(OC)cc2)c(-c2ccc(OC)cc2)n1 (stereo not drawn) [Compound B-40, 2-[[5,6-bis(4-methoxyphenyl)-1,2,4-triazin-3-yl]sulfanyl]-N-methyl-propanamide]
42	CCC(=O)C(C)Sc1nnc(-c2ccccc2)c(-c2ccccc2)n1 (stereo not drawn) [Compound B-29, 2-[(5,6-diphenyl-1,2,4-triazin-3-yl)sulfanyl]pentan-3-one]
56	CNC(=O)CCSc1nnc(-c2ccccc2)c(-c2ccccc2)n1 [Compound B-26, 3-[(5,6-diphenyl-1,2,4-triazin-3-yl)sulfanyl]-N-methyl-propanamide]
4	CCC(=O)Nc1nnc(-c2ccccc2)c(-c2ccccc2)n1 [Compound B-47, N-(5,6-diphenyl-1,2,4-triazin-3-yl)propanamide]

Same assay, conditions: Table 6; HEK293-TRPM8 cells; read-out: TRPM8 EC50

EC50 [nM]	Structure (SMILES)
10	CNC(=O)C(C)Sc1nc(-c2ccccc2)c(-c2ccccc2)o1 (stereo not drawn) [Compound A-01, 3-carboxy-3,5-dihydroxy-5-OXO-pentanoate;2-(4,5-diphenyloxazol-2-yl)sulfanylpropa noyl-methyl-ammonium]

Same assay, conditions: Table 8; HEK293-TRPM8 cells; read-out: TRPM8 EC50

EC50 [nM]	Structure (SMILES)
10	CNC(=O)C(C)Sc1nc(-c2ccccc2)c(-c2ccccc2)o1 (stereo not drawn) [Compound A-01, 3-carboxy-3,5-dihydroxy-5-OXO-pentanoate;2-(4,5-diphenyloxazol-2-yl)sulfanylpropa noyl-methyl-ammonium]
